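Grown in 96-well plates, cells were treated for 48 hours with each compound at five concentrations. Insufficient inhibition: endpoint recorded as highest concentration tested. At the GI50, growth is halved. TGI: concentration producing complete growth inhibition.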
Columns and labels:
Test in all cases: NCI-60 cell line screen, 48 h
M14 melanoma = system: M14 melanoma
DU-145 prostate = system: DU-145 prostate
HS 578T breast = system: HS 578T breast
MDA-MB-435 = system: MDA-MB-435
OVCAR-4 ovarian = system: OVCAR-4 ovarian
COLO 205 colon = system: COLO 205 colon
OVCAR-3 ovarian = system: OVCAR-3 ovarian
OVCAR-8 ovarian = system: OVCAR-8 ovarian
UACC-62 melanoma = system: UACC-62 melanoma
EKVX NSCLC = system: EKVX NSCLC

| Compound | GI50 (M14 melanoma) | TGI (M14 melanoma) | GI50 (DU-145 prostate) | TGI (DU-145 prostate) | GI50 (HS 578T breast) | TGI (HS 578T breast) | GI50 (MDA-MB-435) | TGI (MDA-MB-435) | GI50 (OVCAR-4 ovarian) | TGI (OVCAR-4 ovarian) | GI50 (COLO 205 colon) | TGI (COLO 205 colon) | GI50 (OVCAR-3 ovarian) | TGI (OVCAR-3 ovarian) | GI50 (OVCAR-8 ovarian) | TGI (OVCAR-8 ovarian) | GI50 (UACC-62 melanoma) | TGI (UACC-62 melanoma) | GI50 (EKVX NSCLC) | TGI (EKVX NSCLC) |
| --- | --- | --- | --- | --- | --- | --- | --- | --- | --- | --- | --- | --- | --- | --- | --- | --- | --- | --- | --- | --- |
| O=C(/C=C/c1ccco1)c1cc(F)c(Cl)cc1Cl | 19.5 µM | 38.4 µM | 19.9 µM | 44.1 µM | 13.7 µM | 39.6 µM | 32.2 µM | > 100 µM | 22 µM | 72.3 µM | 18.6 µM | 38.4 µM | 21.4 µM | 60.4 µM | 24.5 µM | 68.3 µM | 16.5 µM | 34.6 µM | 17.1 µM | 37.3 µM |
| Cc1ccc(Cl)cc1Nc1nc(C(F)(F)F)ccc1C(=O)N/N=C/c1cccnc1 | 1.44 µM | 3.92 µM | 3.38 µM | 9.73 µM | 4.05 µM | 18.5 µM | 3.99 µM | 15.7 µM | 1.33 µM | 15.4 µM | 4.86 µM | 17.7 µM | 2.45 µM | 14.3 µM | 3.05 µM | 15.1 µM | 3.25 µM | 13.7 µM | 1.32 µM | 9.01 µM |
| CN1CCC(COc2cnc(-c3cccc(Cn4nc(-c5cccc(C#N)c5)ccc4=O)c3)nc2)CC1 | 1.96 µM | 3.64 µM | 4.76 µM | 30.5 µM | 4.63 µM | 19.8 µM | 2.74 µM | 9.47 µM | 2 µM | 5.32 µM | 1.92 µM | 3.68 µM | 2.45 µM | 6.06 µM | 3.27 µM | 12.8 µM | 2.07 µM | 4.54 µM | 9.45 µM | 40 µM |
| O=C(c1ccco1)c1nc2cc(C(F)(F)F)ccc2nc1C(F)(F)F | > 100 µM | > 100 µM | > 100 µM | > 100 µM | > 100 µM | > 100 µM | > 100 µM | > 100 µM | 56.4 µM | > 100 µM | > 100 µM | > 100 µM | > 100 µM | > 100 µM | > 100 µM | > 100 µM | > 100 µM | > 100 µM | > 100 µM | > 100 µM |
| O=C(COc1ccc(/C=C2\COc3ccccc3C2=O)cc1)Nc1nccs1 | 6.71 µM | 20 µM | 4.8 µM | 14.8 µM | 2.74 µM | 9.4 µM | 3.56 µM | 18.4 µM | 20.5 µM | 68.5 µM | 14.6 µM | 29 µM | 2.73 µM | 5.81 µM | 4.49 µM | 45.2 µM | 7.69 µM | 21.1 µM | 22.4 µM | 76.3 µM |
| CCOC(=O)[C@@H](C)C[C@H](Cc1ccccc1)NC(=O)c1nc([C@@H](C[C@H](C(C)C)N(C)C(=O)[C@@H](NC(=O)[C@H]2CCCCN2C)C(C)C)OC(C)=O)sc1CCOCc1ccccc1 | 0.0689 µM | 0.727 µM | 0.0404 µM | 1.08 µM | 0.083 µM | 2.85 µM | 0.0123 µM | 0.0478 µM | 0.222 µM | > 11.1 µM | 0.0522 µM | 0.276 µM | 0.0396 µM |  | 0.216 µM | 2.08 µM | 0.0372 µM | 1.69 µM | 0.314 µM | > 11.1 µM |
| Cc1cccc(-c2[nH]ncc2-c2ccc3ncccc3n2)n1 | 10.8 µM | > 25 µM | 12.8 µM | > 25 µM | > 14.5 µM | > 25 µM | 15.4 µM | > 25 µM | > 22.4 µM | > 25 µM | 6.31 µM | 16.7 µM | 14.4 µM | > 25 µM | 8.54 µM | > 25 µM | 13.7 µM | > 25 µM | > 20.7 µM | > 25 µM |
| CCOC(=O)c1ccccc1OC(=O)NNc1ccccc1 |  | > 100 µM | > 48.5 µM | > 100 µM | > 31.9 µM | > 100 µM | 0.531 µM | > 100 µM | 15.2 µM | > 100 µM | 2.45 µM | > 100 µM | 16.3 µM | > 100 µM | 9.19 µM | > 100 µM | 0.269 µM | > 28.2 µM | 6.07 µM | > 100 µM |
| CC1(C)N=C(N)N=C(N)N1c1ccc(CCCCc2ccccc2)c(Cl)c1 | 0.0598 µM | 8.77 µM | 0.0577 µM | 14 µM | 4.49 µM | 39.4 µM | 0.038 µM | 5.91 µM | 0.0755 µM | 9.66 µM | 0.0281 µM | 1.68 µM | 0.0541 µM | 1.76 µM | 0.0606 µM | > 39.7 µM | 0.0505 µM | 2.67 µM | 0.294 µM | 25.1 µM |
| C=C(C)[C@@H]1CC[C@]2(COCCC#N)CC[C@]3(C)[C@H](CC[C@@H]4[C@@](C)(CCCNCCC#N)[C@H](C(=C)C)CC[C@]43C)[C@@H]12 | 14.7 µM | > 50 µM | 21.6 µM | > 50 µM | 21.1 µM | > 50 µM | 12.7 µM | 34.5 µM | 18 µM | > 50 µM | 14.6 µM | > 50 µM | 9.66 µM | 22.4 µM | 12.1 µM | 31.8 µM | 8.81 µM | 23.1 µM | 46.9 µM | > 50 µM |
| Cc1ccc(NC(=O)c2ccc(CN3CCN(C)CC3)cc2)cc1Nc1nccc(-c2cccnc2)n1 | 19.1 µM | 35.7 µM | 19.7 µM | 55.6 µM | 15 µM | 43.1 µM | 17.4 µM | 36 µM | 18.6 µM | 65.3 µM | 16.7 µM | 40.5 µM | 31.1 µM | 72.9 µM | 27 µM | > 89.9 µM | 19.2 µM | 40.5 µM | 26.6 µM | 92.1 µM |
| Cc1c(O)c2ccccc2oc1=O |  | > 100 µM |  | > 100 µM |  | > 100 µM |  | > 100 µM |  | > 100 µM |  | > 100 µM |  | > 100 µM |  | > 100 µM |  | > 100 µM |  | > 100 µM |

Reference: PubChem BioAssay (NCI)
